# What was measured:
# [1] = target: T1, B1R of the rat (Rattus norvegicus, UniProt P97583); assay: FLIPR Ca2+ functional assay, B1R antagonism, rat B1R in CHO K1 cells; format: cell-based; conditions: test substance 10 μM; rB1R CHO K1 cells; agonist Des-Arg9 bradykinin at EC80; % of maximum achievable inhibition
# T1 construct: expressed in transfected cells; host or cells: CHO K1 cells (Chinese hamster ovary), stably transfected
# T1 sequence (P97583 1-337): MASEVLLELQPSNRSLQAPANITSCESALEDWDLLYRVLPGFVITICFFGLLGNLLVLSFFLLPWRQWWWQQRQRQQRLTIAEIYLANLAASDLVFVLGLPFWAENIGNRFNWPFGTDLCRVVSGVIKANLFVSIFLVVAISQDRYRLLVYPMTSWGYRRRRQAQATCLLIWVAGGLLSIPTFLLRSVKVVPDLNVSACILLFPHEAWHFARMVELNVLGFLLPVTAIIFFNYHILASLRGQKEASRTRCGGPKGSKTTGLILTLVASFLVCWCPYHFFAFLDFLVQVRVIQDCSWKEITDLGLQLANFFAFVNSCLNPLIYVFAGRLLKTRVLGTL
# Procedure, shortened: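 Stably transfected CHO K1 cells loaded with Fluo-4; Ca2+ fluorescence read on FLIPR (ex 488/em 540 nm). Compound preincubated 10-20 min, then agonist at EC80: Lys-Des-Arg9 bradykinin (human) or Des-Arg9 bradykinin (rat). % inhibition vs maximal inhibition; IC50 from concentration series, n=2-3, N>=2.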
# [2] = target: T2, human B1R (Homo sapiens, UniProt P46663); assay: FLIPR Ca2+ functional assay, B1R antagonism, human B1R in CHO K1 cells; format: cell-based; conditions: test substance 10 μM; hB1R CHO K1 cells; agonist Lys-Des-Arg9 bradykinin at EC80; % of maximum achievable inhibition
# T2 construct: expressed in transfected cells; host or cells: CHO K1 cells (Chinese hamster ovary), stably transfected
# T2 sequence (P46663 1-353): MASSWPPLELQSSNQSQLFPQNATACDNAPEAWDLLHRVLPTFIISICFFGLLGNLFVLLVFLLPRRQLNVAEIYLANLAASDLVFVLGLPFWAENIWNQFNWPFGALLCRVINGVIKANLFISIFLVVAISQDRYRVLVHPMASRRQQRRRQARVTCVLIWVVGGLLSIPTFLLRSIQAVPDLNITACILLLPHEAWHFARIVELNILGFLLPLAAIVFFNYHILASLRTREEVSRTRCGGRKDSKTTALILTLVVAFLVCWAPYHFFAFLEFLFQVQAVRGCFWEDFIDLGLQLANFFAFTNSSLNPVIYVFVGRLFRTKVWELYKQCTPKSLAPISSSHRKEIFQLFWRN
# Experimental: The agonistic or antagonistic action of substances on the bradykinin 1 receptor (B1R) of the human and rat species can be quantified with ectopically expressing cell lines (CHO K1 cells) and with the aid of a Ca^2+-sensitive dye (Fluo-4) using a fluorescent imaging plate reader (FLIPR). The value in % activation is based on the Ca^2+ signal after addition of Lys-Des-Arg^9 bradykinin (0.5 nM) or Des-Arg^9 bradykinin (100 nM). Antagonists lead to a suppression of the Ca^2+ influx following administration of the agonist. The % inhibition in comparison with the maximum achievable inhibition is indicated.
# 1. Functional Investigation on the Bradykinin 1 Receptor (B1R) The agonistic or antagonistic action of substances can be determined on the bradykinin 1 receptor (B1R) of the human and rat species with the following assay. According to this assay, the Ca^2+ inflow through the channel is quantified with the aid of a Ca^2+-sensitive dye (Fluo-4 type, Molecular Probes Europe BV, Leiden, Netherlands) in a fluorescent imaging plate reader (FLIPR, Molecular Devices, Sunnyvale, USA). 2. Method: Chinese hamster ovary cells (CHO K1 cells) which are stably transfected with the human B1R gene (hB1R cells) or the B1R gene of the rat (rB1R cells) are used. For functional investigations these cells are plated-out onto black 96-well plates with a clear base (BD Biosciences, Heidelberg, Germany or Greiner, Frickenhausen, Germany) in a density of 20,000-35,000 cells/well. Overnight the cells are incubated at 37° C. and 5% CO2 in culture medium (hB1R cells: Ham's Nutrient Mixture F12, Gibco Invitrogen GmbH, Karlsruhe, Germany or DMEM, Sigma-Aldrich, Taufkirchen, Germany; rB1R cells: D-MEM/F12, Gibco Invitrogen, Karlsruhe, Germany) with 10 vol. % FBS (foetal bovine serum, Gibco Invitrogen GmbH, Karlsruhe, Germany or PAN Biotech GmbH, Aidenbach, Germany).
# On the following day the cells are loaded with 2.13 μM Fluo-4 (Molecular Probes Europe BV, Leiden, Netherlands) in HBSS buffer (Hank's buffered saline solution, Gibco Invitrogen GmbH, Karlsruhe, Germany) with 2.5 mM probenecid (Sigma-Aldrich, Taufkirchen, Germany) and 10 mM HEPES (Sigma-Aldrich, Taufkirchen, Germany) for 60 min at 37° C. The plates are subsequently washed twice with HBSS buffer, and HBSS buffer which additionally contains 0.1% BSA (bovine serum albumin; Sigma-Aldrich, Taufkirchen, Germany), 5.6 mM glucose and 0.05% gelatine (Merck KGaA, Darmstadt, Germany) is added. After a further incubation of 20 minutes at RT, the plates are inserted into the FLIPR for Ca^2+ measurement. Alternatively they are washed with buffer A (15 mM HEPES, 80 mM NaCl, 5 mM KCl, 1.2 mM CaCl2, 0.7 mM MgSO4, 2 g/l glucose, 2.5 mM probenecid) and loaded with buffer A with added 2.5 μM Fluo-4 and 0.025% Pluronic F127 (Sigma-Aldrich, Taufkirchen, Germany). The cells are then washed twice with buffer A and incubated for 30 minutes with buffer A, which additionally contains 0.05% BSA and 0.05% gelatine, at RT and then used for Ca^2+ measurement in the FLIPR. The Ca^2+-dependent fluorescence is measured here before and after addition of substances (λex=488 nm, λem=540 nm). The quantification is performed by measuring the highest fluorescence intensity (FC, fluorescence counts) over time.
# The FLIPR protocol comprises two additions of substance. Test substances (10 μM) are first pipetted onto the cells and the Ca^2+ inflow is compared with the control (hB1R: Lys-Des-Arg^9 bradykinin >=50 nM; rB1R: Des-Arg^9 bradykinin 10 μM). The value in % activation based on the Ca^2+ signal after addition of Lys-Des-Arg^9 bradykinin (>=50 nM) or Des-Arg^9 bradykinin (10 μM) is obtained therefrom. After incubation for 10-20 minutes, Lys-Des-Arg^9 bradykinin (hB1R) or Des-Arg^9 bradykinin (rB1R) is applied in the EC80 concentration and the inflow of Ca^2+ is likewise determined.
# Antagonists lead to a suppression of the Ca^2+ inflow. The % inhibition in comparison with the maximum achievable inhibition is calculated. […]
inhibition at 10 µM [1] [%],inhibition at 10 µM [2] [%],Compound
102,100,"O=C(CC1c2cccn2CCN1S(=O)(=O)c1ccccc1)NC1CCc2cc(CN3CCCCC3)ccc2C1 (centres unmarked) [Example 27, 2-(2-(phenylsulfonyl)-1,2,3,4-tetrahydropyrrolo[1,2-a]pyrazin-1-yl)-N-(6-(piperidin-1-ylmethyl)-1,2,3,4-tetrahydronaphthalen-2-yl)acetamide]"
100,99.9,"Cc1ccc(S(=O)(=O)N2CCn3cccc3C2CC(=O)NC2CCc3cc(CN4CCOCC4)ccc3C2)cc1Cl (centres unmarked) [Example 66, 2-[2-[(3-Chloro-4-methyl-phenyl)sulfonyl]-1,2,3,4-tetrahydro-pyrrolo[1,2-a]pyrazin-1-yl]-N-[6-(morpholin-4-yl-methyl)-1,2,3,4-tetrahydro-naphthalen-2-yl]-acetamide]"
102,99.8,"Cc1ccc(S(=O)(=O)N2CCn3cccc3C2CC(=O)NC2CCc3cc(CN4CCCCC4)ccc3C2)cc1 (centres unmarked) [Example 29, N-(6-(piperidin-1-ylmethyl)-1,2,3,4-tetrahydronaphthalen-2-yl)-2-(2-tosyl-1,2,3,4-tetrahydropyrrolo[1,2-a]pyrazin-1-yl)acetamide]"
99.5,99.7,"Cc1ccc(S(=O)(=O)N2CCn3cccc3C2CC(=O)NC2CCc3cc(CN4CCCCC4)ccc3C2)cc1Cl (centres unmarked) [Example 50, 2-[2-[(3-Chloro-4-methyl-phenyl)sulfonyl]-1,2,3,4-tetrahydro-pyrrolo[1,2-a]pyrazin-1-yl]-N-[6-(piperidin-1-yl-methyl)-1,2,3,4-tetrahydro-naphthalen-2-yl]-acetamide]"
103,99.9,"COc1ccc2cc(S(=O)(=O)N3CCn4cccc4C3CC(=O)NC3CCc4cc(CNCc5ccccc5)ccc4C3)ccc2c1 (centres unmarked) [Example 101, N-[6-[(Benzylamino)-methyl]-1,2,3,4-tetrahydro-naphthalen-2-yl]-2-[2-[(6-methoxy-naphthalen-2-yl)sulfonyl]-1,2,3,4-tetrahydro-pyrrolo[1,2-a]pyrazin-1-yl]-acetamide]"
102,99.1,"Cc1ccc(S(=O)(=O)N2CCn3cccc3C2CC(=O)NC2CCc3cc(CN4CCN(C)CC4)ccc3C2)cc1 (centres unmarked) [Example 81, N-[6-[(4-Methyl-piperazin-1-yl)-methyl]-1,2,3,4-tetrahydro-naphthalen-2-yl]-2-[2-(p-tolylsulfonyl)-1,2,3,4-tetrahydro-pyrrolo[1,2-a]pyrazin-1-yl]-acetamide]"
103,96,"Cc1cc(S(=O)(=O)N2CCn3cccc3C2CC(=O)NC2CCc3cc(CN4CCCCC4)ccc3C2)c(C)cc1Cl (centres unmarked) [Example 25, 2-(2-(4-chloro-2,5-dimethylphenylsulfonyl)-1,2,3,4-tetrahydropyrrolo[1,2-a]pyrazin-1-yl)-N-(6-(piperidin-1-ylmethyl)-1,2,3,4-tetrahydronaphthalen-2-yl)acetamide]"
65.5,8.84,"COc1cc(C)c(S(=O)(=O)N2CCn3cccc3C2COCC(=O)NC2CCN(c3ccc(C(F)(F)F)cn3)CC2)c(C)c1 (centres unmarked) [Example 32, 2-[[2-[(4-Methoxy-2,6-dimethyl-phenyl)sulfonyl]-1,2,3,4-tetrahydro-pyrrolo[1,2-a]pyrazin-1-yl]-methoxy]-N-[1-[5-(trifluoromethyl)-pyridin-2-yl]-piperidin-4-yl]-acetamide]"
102,99.8,"O=C(CC1c2cccn2CCN1S(=O)(=O)c1cccc(C(F)(F)F)c1)NC1CCCc2cc(CNCc3ccccc3)ccc21 (centres unmarked) [Example 112, N-[6-[(Benzylamino)-methyl]-1,2,3,4-tetrahydro-naphthalen-1-yl]-2-[2-[[3-(trifluoromethyl)phenyl]sulfonyl]-1,2,3,4-tetrahydro-pyrrolo[1,2-a]pyrazin-1-yl]-acetamide]"
98,99.7,"Cc1ccc(S(=O)(=O)N2CCn3cccc3C2CC(=O)NC2CCCc3cc(CN4CCCCC4)ccc32)cc1Cl (centres unmarked) [Example 56, 2-[2-[(3-Chloro-4-methyl-phenyl)sulfonyl]-1,2,3,4-tetrahydro-pyrrolo[1,2-a]pyrazin-1-yl]-N-[6-(piperidin-1-yl-methyl)-1,2,3,4-tetrahydro-naphthalen-1-yl]-acetamide]"
104,97.8,"COc1cc(C)c(S(=O)(=O)N2CCn3cccc3C2COCC(=O)N2CCC(CN3CCN(C)CC3)C2)c(C)c1 (centres unmarked) [Example 37, 2-[[2-[(4-Methoxy-2,6-dimethyl-phenyl)sulfonyl]-1,2,3,4-tetrahydro-pyrrolo[1,2-a]pyrazin-1-yl]-methoxy]-1-[3-[(4-methyl-piperazin-1-yl)-methyl]-pyrrolidin-1-yl]-ethanone]"
102,99.8,"O=C(CC1c2cccn2CCN1S(=O)(=O)c1cccc(C(F)(F)F)c1)NC1CCc2cc(CN3CCCCC3)ccc2C1 (centres unmarked) [Example 30, N-(6-(piperidin-1-ylmethyl)-1,2,3,4-tetrahydro-naphthalen-2-yl)-2-(2-(3-(trifluoromethyl)-phenylsulfonyl)-1,2,3,4-tetrahydropyrrolo-[1,2-a]pyrazin-1-yl)acetamide]"

Compound,inhibition at 10 µM [1] [%],inhibition at 10 µM [2] [%]
"Cc1ccc(S(=O)(=O)N2CCn3cccc3C2CC(=O)NC2CCCc3cc(CN4C5CCCC4CC5)ccc32)cc1Cl (centres unmarked) [Example 110, N-[6-(8-Azabicyclo[3.2.1]octan-8-yl-methyl)-1,2,3,4-tetrahydro-naphthalen-1-yl]-2-[2-[(3-chloro-4-methyl-phenyl)sulfonyl]-1,2,3,4-tetrahydro-pyrrolo[1,2-a]pyrazin-1-yl]-acetamide]",98.8,99.9

# Source: patent US8158628B2, “Sulfonylated 1,2,3,4-tetrahydropyrrolo[1,2-a]pyrazine compounds and their use as pharmaceuticals” (Gruenenthal GmbH, priority 2009, dated 2012)
